The subject of one assay is VEGF-dependent phospho ERK1/2 (T202/Y204) in HUVEC cells. Briefly: VEGF-Dependent Erk Phosphorylation in HUVEC cells. Type of assay: cell-based. The settings on record: Homo sapiens, 1.5 h compound exposure, VEGF165 150 ng/ml, Western blot densitometry, read-out: P_ERK_IC50_UM. From the text:
HUVEC cells are purchased from Cambrex Bio Science Walkersville, Inc and cultured according to the vendor's instructions. The full-length coding sequence of VEGF165 is cloned using the Gateway Cloning Technology (Invitrogen) for baculovirus expression Sf9 cells. VEGF165 is purified from conditioned media using a NaCl gradient elution from a HiTrap heparin column (GE Healthcare Life Sciences) followed by an imidazole gradient elution from a HiTrap chelating column (GE Healthcare Life Sciences), then buffer stored in PBS supplemented with 0.1% BSA and filter sterilized
Cells are seeded at 8000 cells/well of a 96 wells plate and grown for 48 hours. Cells are then grown overnight in serum and growth factor-free medium and exposed for 1.5 h to compounds dilutions. Following a 15 min incubation in medium, VEGF165 (150 ng/ml) cells are lysed in ice-cold lysis buffer (50 mM HEPES, pH 7.4, 150 mM NaCl, 1.5 mM MgCl2, 1% Triton X-100, 10% glycerol) containing 1 mM 4-(2 aminoethyl)benzenesulfonyl fluoride hydrochloride, 200 μM sodium orthovanadate, 1 mM sodium fluoride, 10 μg/mL leupeptin, 10 μg/mL aprotinin, 1 μg/mL pepstatin and 50 μg/mL Na-p-tosyl-L-lysine chloromethyl ketone hydrochloride and processed as Western blots to detect anti-phospho ERK1/2 (T202/Y204)(Cell Signaling Technologies). […]
For orientation: A western blot detects proteins with antibodies after separation by electrophoresis.
T1 sequence (P35968 806-1356): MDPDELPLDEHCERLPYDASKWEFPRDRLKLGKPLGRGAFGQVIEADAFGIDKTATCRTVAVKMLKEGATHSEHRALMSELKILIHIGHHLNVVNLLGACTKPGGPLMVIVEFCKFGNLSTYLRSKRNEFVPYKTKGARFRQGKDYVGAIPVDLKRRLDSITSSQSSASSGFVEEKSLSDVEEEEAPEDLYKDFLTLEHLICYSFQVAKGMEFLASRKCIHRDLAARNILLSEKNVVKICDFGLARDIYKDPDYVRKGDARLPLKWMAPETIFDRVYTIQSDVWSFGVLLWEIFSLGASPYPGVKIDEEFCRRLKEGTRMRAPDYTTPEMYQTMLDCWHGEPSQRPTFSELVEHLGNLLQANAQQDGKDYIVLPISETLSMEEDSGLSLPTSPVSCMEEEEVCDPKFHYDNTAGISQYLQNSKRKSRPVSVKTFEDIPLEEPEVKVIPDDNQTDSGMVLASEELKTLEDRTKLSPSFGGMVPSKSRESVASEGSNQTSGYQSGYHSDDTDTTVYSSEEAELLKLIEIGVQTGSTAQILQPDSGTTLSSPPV
On to `O=C1CCCN1Cc1ccc(-c2cc3nccc(Oc4ccc5oc(NC6CC6)nc5c4)c3s2)nc1` [Compound 47], for which the IC50 is 120 nM.

The next assay concerns the target T1, VEGFR2 (KDR) (Homo sapiens, UniProt P35968).
T1 construct: made in house; host or cells: Sf9 cells (Spodoptera frugiperda), recombinant baculovirus
Briefly: In Vitro Receptor Tyrosine Kinase Assay (VEGF receptor KDR), DELFIA. The settings on record: recombinant GST-VEGFR2 806-1356, enzyme 5 nM, ATP 0.6 uM (2x Km), poly(Glu4,Tyr) substrate; read-out: VEGFR_IC50_UM. Type of assay: biochemical. The source says:
This test measures the ability of compounds to inhibit the enzymatic activity of recombinant human VEGF receptor enzymatic activity.
A 1.6-kb cDNA corresponding to the catalytic domain of VEGFR2 (KDR) (Genbank accession number AF035121 amino acid 806 to 1356) is cloned into the Pst I site of the pDEST20 Gateway vector (Invitrogen) for the production of a GST-tagged version of that enzyme. This construct is used to generate recombinant baculovirus using the Bac-to-Bac™ system according to the manufacturer's instructions (Invitrogen).
The GST-VEGFR2806-1356 protein is expressed in Sf9 cells (Spodoptera frugiperda) upon infection with recombinant baculovirus construct. Briefly, Sf9 cells grown in suspension and maintained in serum-free medium (Sf900 II supplemented with gentamycin) at a cell density of about 2×10^6 cells/ml are infected with the above-mentioned viruses at a multiplicity of infection (MOI) of 0.1 during 72 hours at 27° C. with agitation at 120 rpm on a rotary shaker. Infected cells are harvested by centrifugation at 398 g for 15 min. Cell pellets are frozen at −80° C. until purification is performed.
All steps described in cell extraction and purification are performed at 4° C. Frozen Sf9 cell pellets infected with the GST-VEGFR2806-1356 recombinant baculovirus are thawed and gently resuspended in Buffer A (PBS pH 7.3 supplemented with 1 μg/ml pepstatin, 2 μg/ml Aprotinin and leupeptin, 50 μg/ml PMSF, 50 μg/ml TLCK and 10 μM E64 and 0.5 mM DTT) using 3 ml of buffer per gram of cells. Suspension is Dounce homogenized and 1% Triton X-100 is added to the homogenate after which it is centrifuged at 22500 g, 30 min., 4° C. The supernatant (cell extract) is used as starting material for purification of GST-VEGFR2806-1356.
The supernatant is loaded onto a GST-agarose column (Sigma) equilibrated with PBS pH 7.3. Following a four column volume (CV) wash with PBS pH 7.3+1% Triton X-100 and 4 CV wash with buffer B (50 mM Tris pH 8.0, 20% glycerol and 100 mM NaCl), bound proteins are step eluted with 5 CV of buffer B supplemented with 5 mM DTT and 15 mM glutathion. GST-VEGFR2806-1356 enriched fractions from this chromatography step are pooled based on U.V. trace i.e. fractions with high O.D.280. Final GST-VEGFR2806-1356 protein preparations concentrations are about 0.7 mg/ml with purity approximating 70%. Purified GST-VEGFR2806-1356 protein stocks are aliquoted and frozen at −80° C. prior to use in enzymatic assay.
Inhibition of VEGFR/KDR is measured in a DELFIA™ assay (Perkin Elmer). The substrate poly(Glu4, Tyr) is immobilized onto black high-binding polystyrene 96-well plates. The coated plates are washed and stored at 4° C. During the assay, the enzyme is pre-incubated with inhibitor and Mg-ATP on ice in polypropylene 96-well plates for 4 minutes, and then transferred to the coated plates. The subsequent kinase reaction takes place at 30° C. for 10-30 minutes. ATP concentrations in the assay are 0.6 uM for VEGFR/KDR (2× the Km). Enzyme concentration is 5 nM. After incubation, the kinase reactions are quenched with EDTA and the plates are washed. Phosphorylated product is detected by incubation with Europium-labeled anti-phosphotyrosine MoAb. After washing the plates, bound MoAb is detected by time-resolved fluorescence in a Gemini SpectraMax reader (Molecular Devices). Compounds are evaluated over a range of concentrations, and IC50 values (concentration of compounds giving 50% inhibition of enzymatic activity) are determined.
`O=C1CCCN1Cc1ccc(-c2cc3nccc(Oc4ccc5oc(Nc6cccc(F)c6)nc5c4)c3s2)nc1` [Compound 56]: the IC50 was determined as 29 nM.
On the same count and under the same terms, with `O=C1CCCN1Cc1ccc(-c2cc3nccc(Oc4ccc5nc(Nc6ccc(Cl)cc6)oc5c4)c3s2)nc1` [Compound 51] the figure was 278 nM; with `COCCN(Cc1ccc(-c2cc3nccc(Oc4ccc5oc(Nc6ccccc6)nc5c4)c3s2)nc1)C(C)=O` [Compound 64], 47 nM.
For `O=C1CCCN1Cc1ccc(-c2cc3nccc(Oc4ccc5oc(Nc6ccc(C(F)(F)F)cc6)nc5c4)c3s2)nc1` [Compound 52], the IC50 was 6 nM.
Turning to `CCN(CC)CCNC(=O)c1ccc(NCc2ccc(-c3cc4nccc(Oc5ccc6oc(Nc7ccc(Cl)cc7)nc6c5)c4s3)nc2)cc1` [Compound 16, 4-((6-(7-(2-(4-Chlorophenylamino)benzo[d]oxazol-5-yloxy)thieno[3,2-b]pyridin-2-yl)pyridin-3-yl)methyl)amino-N-(2-(diethylamino)ethyl)benzamide], the IC50 was 16 nM.
On the same count and under the same terms, with `O=C1CCCN1Cc1ccc(-c2cc3nccc(Oc4ccc5oc(Nc6cccc(Cl)c6)nc5c4)c3s2)nc1` [Compound 49] the figure was 2 nM; with `CCNC(=O)NC1CCN(Cc2ccc(-c3cc4nccc(Oc5ccc6oc(Nc7ccc(Cl)cc7)nc6c5)c4s3)nc2)CC1` [Compound 13], 7 nM; with `O=C1CCCN1Cc1ccc(-c2cc3nccc(Oc4ccc5nc(Nc6cccc(Cl)c6)oc5c4)c3s2)nc1` [Compound 50], 434 nM.
Still for that read-out and setting: for `O=C1CCCN1Cc1ccc(-c2cc3nccc(Oc4ccc5oc(NC6CC6)nc5c4)c3s2)nc1` [Compound 47] the value was 1560 nM; for `Clc1ccc(Nc2nc3cc(Oc4ccnc5cc(-c6ccc(CNc7cc[nH]n7)cn6)sc45)ccc3o2)cc1` [Compound 17], 41.3 nM.
Same read-out and setting: with `COCCN(Cc1ccc(-c2cc3nccc(Oc4ccc5oc(NC6CC6)nc5c4)c3s2)nc1)C(C)=O` [Compound 63] the figure was 1580 nM; with `CN(C(=O)CO)C1CCN(Cc2ccc(-c3cc4nccc(Oc5ccc6oc(Nc7ccc(Cl)cc7)nc6c5)c4s3)nc2)CC1` [Compound 14], 5 nM.
With `O=C1CCCN1Cc1ccc(-c2cc3nccc(Oc4ccc5oc(Nc6ccc(Cl)cc6)nc5c4)c3s2)nc1` [Compound 46, 1-((6-(7-(2-(4-Chlorophenylamino)benzo[d]oxazol-5-yloxy)thieno[3,2-b]pyridin-2-yl)pyridin-3-yl)methyl)pyrrolidin-2-one], the IC50 is 5 nM.
On the same count and under the same terms, for `Clc1ccc(Nc2nc3cc(Oc4ccnc5cc(-c6ccc(CNc7cccc(OCCN8CCOCC8)c7)cn6)sc45)ccc3o2)cc1` [Compound 19] the value was 12 nM.
On the same count and under the same terms, for `O=C1CCCN1Cc1ccc(-c2cc3nccc(Oc4ccc5oc(Nc6ccc(Cl)c(C(F)(F)F)c6)nc5c4)c3s2)nc1` [Compound 57] the value was 18 nM; for `CN(C)[C@H]1CCN(C(=O)c2cc3nccc(Oc4ccc5oc(Nc6ccccc6)nc5c4)c3s2)C1` [Compound 61], 19 nM.
The same measure, in the same setting: for `O=C1CCCN1Cc1ccc(-c2cc3nccc(Oc4ccc5oc(Nc6ccc(F)cc6)nc5c4)c3s2)nc1` [Compound 55] the value was 14 nM; for `O=C(CO)NC1CCN(Cc2ccc(-c3cc4nccc(Oc5ccc6oc(Nc7ccc(Cl)cc7)nc6c5)c4s3)nc2)CC1` [Compound 12, N-(1-((6-(7-(2-(4-Chlorophenylamino)benzo[d]oxazol-5-yloxy)thieno[3,2-b]pyridin-2-yl)pyridin-3-yl)methyl)piperidin-4-yl)-2-hydroxyacetamide], 6 nM.
Regarding `CCNC(=O)N(C)C1CCN(Cc2ccc(-c3cc4nccc(Oc5ccc6oc(Nc7ccc(Cl)cc7)nc6c5)c4s3)nc2)CC1` [Compound 15], the IC50 came to 7 nM.
On the same count and under the same terms, for `O=C(c1cc2nccc(Oc3ccc4oc(Nc5ccccc5)nc4c3)c2s1)N1CCCCC1` [Compound 59] the value was 240 nM; for `CC(C)(C)OC(=O)N1CCN(Cc2ccc(-c3cc4nccc(Oc5ccc6oc(Nc7ccc(Cl)cc7)nc6c5)c4s3)nc2)CC1` [Compound 65], 232 nM; for `Clc1ccc(Nc2nc3cc(Oc4ccnc5cc(-c6ccc(CNc7ccc(OCCN8CCOCC8)cc7)cn6)sc45)ccc3o2)cc1` [Compound 18], 23 nM.
The same measure, in the same setting: with `CCn1cc(CN(Cc2ccc(-c3cc4nccc(Oc5ccc6oc(Nc7ccc(Cl)cc7)nc6c5)c4s3)nc2)C(C)C)nn1` [Compound 21, N-(4-Chlorophenyl)-5-(2-(5-((((1-ethyl-1H-1,2,3-triazol-4-yl)methyl)(isopropyl)amino)methyl)pyridin-2-yl)thieno[3,2-b]pyridin-7-yloxy)benzo[d]oxazol-2-amine] the figure was 8 nM.
Same read-out and setting: for `COCCN(Cc1ccc(-c2cc3nccc(Oc4ccc5oc(Nc6ccc(Cl)cc6)nc5c4)c3s2)nc1)C(C)=O` [Compound 62] the value was 4 nM.
In the case of `COc1ccc(Nc2nc3cc(Oc4ccnc5cc(-c6ccc(CN7CCCC7=O)cn6)sc45)ccc3o2)cc1` [Compound 53], the IC50 stood at 3 nM.
Still for that read-out and setting: for `O=C1CCCN1Cc1ccc(-c2cc3nccc(Oc4ccc5oc(Nc6ccccc6Cl)nc5c4)c3s2)nc1` [Compound 54] the value was 139 nM.

Values taken from US20130096136A1, “Inhibitors of Protein Tyrosine Kinase Activity” (METHYLGENE INC., priority 2011, published 2013).
